{"source": "paper PMC8219695", "about": "(Nature Communications, 2021)", "key": {"[1]": {"molecular_target": "hDOR (Homo sapiens, UniProt P41143)", "sequence (P41143 whole entry)": "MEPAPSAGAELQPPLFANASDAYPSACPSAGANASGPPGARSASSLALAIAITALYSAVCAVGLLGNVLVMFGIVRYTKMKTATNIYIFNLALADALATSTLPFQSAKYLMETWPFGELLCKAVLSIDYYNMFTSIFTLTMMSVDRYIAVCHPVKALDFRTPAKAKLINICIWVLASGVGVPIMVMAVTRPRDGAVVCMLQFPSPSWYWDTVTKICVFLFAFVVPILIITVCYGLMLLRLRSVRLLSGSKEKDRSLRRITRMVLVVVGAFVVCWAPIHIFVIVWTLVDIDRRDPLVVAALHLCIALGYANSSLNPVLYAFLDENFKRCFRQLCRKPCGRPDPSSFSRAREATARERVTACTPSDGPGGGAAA", "assay": "CAMYEL BRET cAMP agonist assay at hDOR", "type": "cell-based", "settings": "for Agonist activity of 7OH analogs at hDOR: single replicate values, Supplementary Figure 7A"}, "[2]": {"molecular_target": "T1, mMOR (Mus musculus, UniProt P42866)", "T1 construct": "signal peptide (heterologous, not specified) (N); expressed in transfected cells; pcDNA3.1(+) construct made in house", "T1 sequence (P42866 whole entry)": "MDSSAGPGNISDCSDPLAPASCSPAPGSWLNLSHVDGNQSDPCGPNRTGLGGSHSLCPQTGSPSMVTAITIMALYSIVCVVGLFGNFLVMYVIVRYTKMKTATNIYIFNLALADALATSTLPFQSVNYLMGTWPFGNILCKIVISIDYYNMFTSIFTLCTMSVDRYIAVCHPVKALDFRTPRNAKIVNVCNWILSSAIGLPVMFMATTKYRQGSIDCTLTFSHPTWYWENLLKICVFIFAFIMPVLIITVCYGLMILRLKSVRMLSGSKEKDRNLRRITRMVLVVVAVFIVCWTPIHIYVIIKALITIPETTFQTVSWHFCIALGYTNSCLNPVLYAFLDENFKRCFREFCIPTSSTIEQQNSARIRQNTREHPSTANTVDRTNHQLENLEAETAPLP", "assay": "CAMYEL BRET antagonism assay at mMOR (inhibition of DAMGO);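 as to Antagonist activity at mMOR, raw signal (single replicate values): BRET signal rises as cAMP falls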", "type": "cell-based", "settings": "for Antagonist activity at mMOR, raw signal (single replicate values): source data of Fig 8a and Table 5, listed as C11-Br-7OH (24)"}, "[3]": {"molecular_target": "T2, mDOR (Mus musculus, UniProt P32300)", "T2 construct": "expressed in transfected cells", "T2 sequence (P32300 whole entry)": "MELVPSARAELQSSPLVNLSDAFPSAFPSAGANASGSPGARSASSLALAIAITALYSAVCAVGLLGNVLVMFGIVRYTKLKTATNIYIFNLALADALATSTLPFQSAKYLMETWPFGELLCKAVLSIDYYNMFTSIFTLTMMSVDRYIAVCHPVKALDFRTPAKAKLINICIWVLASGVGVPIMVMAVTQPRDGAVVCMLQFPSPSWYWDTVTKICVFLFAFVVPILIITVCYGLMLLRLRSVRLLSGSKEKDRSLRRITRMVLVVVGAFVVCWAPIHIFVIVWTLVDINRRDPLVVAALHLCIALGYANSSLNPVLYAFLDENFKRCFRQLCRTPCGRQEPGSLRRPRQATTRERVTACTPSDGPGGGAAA", "assay": "[125I]BNtxA radioligand competition binding, mouse DOR", "settings": "mean ± SEM, n = 3; [125I]BNtxA; read-out: Ki ± SEM mDOR"}, "[4]": {"molecular_target": "T3, hMOR (Homo sapiens, UniProt P35372)", "T3 construct": "expressed in transfected cells; plasmid a gift from Dr. Nevin Lambert", "T3 sequence (P35372 whole entry)": "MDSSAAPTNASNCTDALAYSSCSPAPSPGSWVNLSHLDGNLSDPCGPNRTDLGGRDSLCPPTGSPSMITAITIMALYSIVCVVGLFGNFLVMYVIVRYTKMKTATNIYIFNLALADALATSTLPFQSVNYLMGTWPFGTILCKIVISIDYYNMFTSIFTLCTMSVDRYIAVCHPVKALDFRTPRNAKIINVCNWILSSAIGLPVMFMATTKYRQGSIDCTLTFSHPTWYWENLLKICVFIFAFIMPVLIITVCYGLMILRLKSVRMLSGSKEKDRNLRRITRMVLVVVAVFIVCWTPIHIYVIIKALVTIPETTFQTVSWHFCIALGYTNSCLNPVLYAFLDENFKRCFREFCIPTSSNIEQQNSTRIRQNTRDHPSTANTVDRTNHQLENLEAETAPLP", "assay": "cell-based"}, "[5]": {"molecular_target": "hKOR (Homo sapiens, UniProt P41145)", "sequence (P41145 whole entry)": "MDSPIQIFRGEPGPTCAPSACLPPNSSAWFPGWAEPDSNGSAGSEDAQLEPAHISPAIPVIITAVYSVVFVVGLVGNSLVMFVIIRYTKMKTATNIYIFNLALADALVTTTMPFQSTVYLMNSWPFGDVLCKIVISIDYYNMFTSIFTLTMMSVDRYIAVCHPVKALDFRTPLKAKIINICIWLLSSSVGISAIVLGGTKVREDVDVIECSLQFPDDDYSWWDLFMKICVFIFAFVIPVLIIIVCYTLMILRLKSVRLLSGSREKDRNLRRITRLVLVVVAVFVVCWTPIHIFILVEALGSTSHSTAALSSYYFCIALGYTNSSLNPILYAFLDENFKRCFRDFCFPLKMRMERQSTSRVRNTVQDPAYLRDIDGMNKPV", "assay": "CAMYEL BRET cAMP agonist assay at hKOR", "type": "cell-based", "settings": "individual replicates, Supplementary Figure 8A source data"}, "[6]": {"molecular_target": "T1, mMOR", "assay": "CAMYEL BRET cAMP agonist assay at mMOR", "type": "cell-based", "settings": "mMOR; for cAMP %: single replicates, source data Fig 6b, listed as C11-Br-7OH (24)"}}, "note": "Values joined by “and” are separate entries in the source; they are usually repeats but may differ in a detail not shown here. Equal entries are not always repeated.", "data": [{"smiles": "CC[C@@H]1CN2CC[C@@]3(O)C(=Nc4cc(Br)cc(OC)c43)[C@@H]2C[C@@H]1/C(=C\\OC)C(=O)OC", "note": "[11-Br-7OH (24), 11-Br-7OH]", "values": [{"measurement": "Agonist activity of 7OH analogs at hDOR", "setting": "[1]; Log[drug] (M) -8", "value": "10.6504 and 18.084 and 4.153 and 20.0173 and 1.0999 and 15.8027 and 12.7278 and 11.7823 and 20.1626"}, {"measurement": "Agonist activity of 7OH analogs at hDOR", "setting": "[1]; Log[drug] (M) -9", "value": "19.553 and 11.3403 and 28.4089 and 9.179 and -1.427 and -6.158 and 5.452 and 0.7244 and 17.3106"}, {"measurement": "Agonist activity of 7OH analogs at hDOR", "setting": "[1]; Log[drug] (M) -10", "value": "3.839 and 3.779 and 7.219 and -2.673 and 3.726 and -0.9121 and -0.9075 and -0.119 and 1.027"}, {"measurement": "Agonist activity of 7OH analogs at hDOR", "setting": "[1]; Log[drug] (M) -11", "value": "6.722 and 21.7822 and 0.8452 and 0.831 and -3.07 and 2.24 and 15.2814 and 3.682 and 0.8607"}, {"measurement": "Agonist activity of 7OH analogs at hDOR", "setting": "[1]; Log[drug] (M) -13", "value": "-12.8405 and 3.455 and 9.386 and 2.252 and 8.162 and 14.0199 and 6.2368 and 9.608 and 10.0864"}, {"measurement": "Emax", "setting": "[1]; hDOR cAMP BRET, positive control DPDPE", "value": "very low efficacy"}, {"measurement": "IC50", "setting": "[2]", "value": 550, "unit": "nM"}, {"measurement": "Antagonist activity at mMOR, raw signal (single replicate values)", "setting": "[2]; Log[drug] (M) -5", "value": "0.01588 and 0.02679 and 0.02408 and 0.03029 and 0.008675 and 0.02853 and 0.02577 and 0.02856 and 0.04207"}, {"measurement": "Antagonist activity at mMOR, raw signal (single replicate values)", "setting": "[2]; Log[drug] (M) -6", "value": "0.07568 and 0.07832 and 0.06492 and 0.08421 and 0.0634 and 0.06872 and 0.08325 and 0.0829 and 0.07977"}, {"measurement": "Antagonist activity at mMOR, raw signal (single replicate values)", "setting": "[2]; Log[drug] (M) -7", "value": "0.1777 and 0.1753 and 0.1839 and 0.1921 and 0.1726 and 0.1908 and 0.1553 and 0.1528 and 0.1604"}, {"measurement": "Antagonist activity at mMOR, raw signal (single replicate values)", "setting": "[2]; Log[drug] (M) -8", "value": "0.2079 and 0.2137 and 0.206 and 0.2077 and 0.2162 and 0.1891 and 0.1751 and 0.1625 and 0.1706"}, {"measurement": "Antagonist activity at mMOR, raw signal (single replicate values)", "setting": "[2]; Log[drug] (M) -9", "value": "0.1949 and 0.206 and 0.225 and 0.1941 and 0.2008 and 0.2159 and 0.1687 and 0.1594 and 0.1786"}, {"measurement": "Antagonist activity at mMOR, raw signal (single replicate values)", "setting": "[2]; Log[drug] (M) -10", "value": "0.1894 and 0.2034 and 0.2214 and 0.2024 and 0.209 and 0.1982 and 0.1754 and 0.1654 and 0.1797"}, {"measurement": "Antagonist activity at mMOR, raw signal (single replicate values)", "setting": "[2]; Log[drug] (M) -11", "value": "0.2409 and 0.2089 (2×) and 0.2025 and 0.1938 and 0.2023 and 0.1798 and 0.1667 and 0.1739"}, {"measurement": "Ki", "setting": "[3]", "value": "57.7 ± 6.7", "unit": "nM"}, {"measurement": "IC50", "setting": "[4]", "value": 1970, "unit": "nM"}, {"measurement": "Agonist activity of 7OH analogs at hKOR", "setting": "[5]; Log [drug](M) -5", "value": "10.9149 and -7.215 and 4.286 and 11.8421 and 11.499 and 10.9733 and -4.579 and 2.634 and 3.416"}, {"measurement": "Agonist activity of 7OH analogs at hKOR", "setting": "[5]; Log [drug](M) -6", "value": "3.035 and -0.7724 and -13.4731 and 3.219 and -0.695 and 8.186 and -5.571 and -3.171 and 0.4347"}, {"measurement": "Agonist activity of 7OH analogs at hKOR", "setting": "[5]; Log [drug](M) -7", "value": "-0.1722 and -16.4342 and -16.1746 and -2.26 and -3.79 and -3.25 and 0.1411 and 2.3 and 5.19"}, {"measurement": "Agonist activity of 7OH analogs at hKOR", "setting": "[5]; Log [drug](M) -8", "value": "22.3379 and -4.57 and 1.209 and 8.576 and -8.308 and -4.317 and 11.4126 and 9.041 and 4.453"}, {"measurement": "Agonist activity of 7OH analogs at hKOR", "setting": "[5]; Log [drug](M) -9", "value": "2.393 and 14.1276 and 3.431 and 19.0489 and 8.55 and -5.559 and -3.604 and -6.454 and -4.21"}, {"measurement": "Agonist activity of 7OH analogs at hKOR", "setting": "[5]; Log [drug](M) -10", "value": "-9.31 and -5.502 and 19.956 and 11.266 and -0.5812 and -7.816 and -4.981 and -0.9266 and -11.4459"}, {"measurement": "Agonist activity of 7OH analogs at hKOR", "setting": "[5]; Log [drug](M) -11", "value": "21.966 and -9.511 and 21.9409 and -12.3295 and 2.605 and 7.521 and 2.85 and -2.233 and 3.089"}, {"measurement": "Agonist activity of 7OH analogs at hKOR", "setting": "[5]; Log [drug](M) -13", "value": "-3.621 and -4.92 and 8.541 and 7.349 and -4.448 and -2.901 and 2.036 and -3.052 and 1.015"}, {"measurement": "cAMP %", "setting": "[6]; Log[drug] (M) -5", "value": "9.013% and 6.73% and 3.065% and 5.631% and 1.057% and 0.04315% and 7.004% and 14.1806% and 4.634%"}, {"measurement": "cAMP %", "setting": "[6]; Log[drug] (M) -6", "value": "5.8044% and 1.851% and 7.958% and 11.2571% and 3.589% and -1.762% and 6.0175% and 2.324% and 0.676%"}, {"measurement": "cAMP %", "setting": "[6]; Log[drug] (M) -7", "value": "-3.894% and -5.88% and 9.775% and 0.4502% and 1.258% and -1.708% and 1.616% and 1.4183% and 0.1827%"}, {"measurement": "cAMP %", "setting": "[6]; Log[drug] (M) -8", "value": "1.549% and 0.05958% and 0.01199% and -1.248% and 2.618% and 1.046% and 3.634% and 0.478% and 3.5882%"}, {"measurement": "cAMP %", "setting": "[6]; Log[drug] (M) -9", "value": "13.8914% and 20.7075% and 0.6937% and 7.1213% and -0.7937% and 5.232% and 4.985% and -2.644% and 5.425%"}, {"measurement": "cAMP %", "setting": "[6]; Log[drug] (M) -10", "value": "10.1801% and 15.9014% and 8.011% and 8.742% and 7.948% and 6.092% and 2.318% and -3.2024% and 3.127%"}, {"measurement": "cAMP %", "setting": "[6]; Log[drug] (M) -11", "value": "14.2135% and 8.364% and 1.552% and 8.664% and 7.808% and 10.8013% and 0.4413% and -1.089% and 0.6474%"}, {"measurement": "cAMP %", "setting": "[6]; Log[drug] (M) -13, cAMP inhibition as % of DAMGO", "value": "6.348% and 21.1377% and 5.87% and 7.068% and 6.954% and 15.1455% and 5.75% and 5.389% and 3.7452%"}, {"measurement": "Emax", "setting": "[6]; maximal inhibitory effect on cAMP levels relative to DAMGO", "value": "< 10", "unit": "%"}]}]}
